The record followed here is ChEMBL document CHEMBL1201862, “PubChem BioAssay data set” (2004).

Test [1] has as its system H9c2. Briefly: cells. Format: functional, cell-based. The settings on record: Rattus norvegicus, H9c2, Myocardium.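 Further: confirmatory concentration-response retest of ultra-high-throughput screening hits for modulation of myocardial damage; cell death induced by hydrogen peroxide oxidative stress; compound pretreatment for 60 min then peroxide exposure for 2 h; potency is for protecting the cells against peroxide damage rather than for killing them.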
Test [2] deals with T1, Cytochrome P450 1A2 (Homo sapiens, UniProt P05177).
T1 sequence (P05177 whole entry): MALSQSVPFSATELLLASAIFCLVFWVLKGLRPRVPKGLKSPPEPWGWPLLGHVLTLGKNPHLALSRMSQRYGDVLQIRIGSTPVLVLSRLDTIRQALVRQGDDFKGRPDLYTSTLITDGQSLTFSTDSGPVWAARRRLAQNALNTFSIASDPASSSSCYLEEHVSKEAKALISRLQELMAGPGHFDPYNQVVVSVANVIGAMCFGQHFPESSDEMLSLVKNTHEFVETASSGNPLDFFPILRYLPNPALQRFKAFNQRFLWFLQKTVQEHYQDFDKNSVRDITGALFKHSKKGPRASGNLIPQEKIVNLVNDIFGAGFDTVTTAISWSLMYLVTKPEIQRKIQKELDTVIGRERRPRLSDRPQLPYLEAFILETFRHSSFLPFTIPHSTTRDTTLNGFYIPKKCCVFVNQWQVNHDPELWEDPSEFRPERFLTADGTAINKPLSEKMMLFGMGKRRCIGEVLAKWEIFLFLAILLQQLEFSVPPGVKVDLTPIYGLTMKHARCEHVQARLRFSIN

Test [3] addresses Cytochrome P450 2D6 (Homo sapiens, UniProt P10635).
Test [4] has as its target T2, Replicative DNA helicase DnaB (Mycobacterium tuberculosis, UniProt P9WMR3).
T2 sequence (P9WMR3 whole entry): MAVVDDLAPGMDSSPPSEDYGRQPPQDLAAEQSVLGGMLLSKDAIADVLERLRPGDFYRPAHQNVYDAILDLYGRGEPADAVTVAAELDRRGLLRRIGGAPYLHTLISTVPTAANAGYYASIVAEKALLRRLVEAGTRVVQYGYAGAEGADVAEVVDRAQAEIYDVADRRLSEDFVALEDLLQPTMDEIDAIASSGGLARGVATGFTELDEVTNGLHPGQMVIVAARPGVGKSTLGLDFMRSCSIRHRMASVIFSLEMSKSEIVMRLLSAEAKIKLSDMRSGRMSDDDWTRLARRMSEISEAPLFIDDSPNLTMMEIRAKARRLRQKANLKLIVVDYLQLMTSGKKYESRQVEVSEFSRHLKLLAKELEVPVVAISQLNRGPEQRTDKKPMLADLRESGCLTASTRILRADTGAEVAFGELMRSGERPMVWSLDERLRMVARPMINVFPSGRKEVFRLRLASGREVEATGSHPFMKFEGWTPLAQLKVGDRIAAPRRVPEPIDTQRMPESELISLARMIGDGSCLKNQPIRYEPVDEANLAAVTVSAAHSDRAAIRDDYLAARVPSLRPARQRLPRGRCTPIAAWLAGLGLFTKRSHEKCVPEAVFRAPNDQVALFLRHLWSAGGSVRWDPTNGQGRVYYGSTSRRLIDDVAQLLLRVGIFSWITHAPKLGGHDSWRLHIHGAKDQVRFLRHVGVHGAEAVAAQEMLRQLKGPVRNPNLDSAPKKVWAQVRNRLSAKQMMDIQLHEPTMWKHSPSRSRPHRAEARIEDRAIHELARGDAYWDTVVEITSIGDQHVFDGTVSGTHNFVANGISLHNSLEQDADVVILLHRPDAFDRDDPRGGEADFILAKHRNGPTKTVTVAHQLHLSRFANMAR
Briefly: DnaB intein splicing inhibitors, dose response, biochemical, cell-free fluorescence (AID 449749). Format: functional.

The target of test [5] is T3, Protein RecA (Mycobacterium tuberculosis, UniProt P9WHJ3).
T3 sequence (P9WHJ3 whole entry): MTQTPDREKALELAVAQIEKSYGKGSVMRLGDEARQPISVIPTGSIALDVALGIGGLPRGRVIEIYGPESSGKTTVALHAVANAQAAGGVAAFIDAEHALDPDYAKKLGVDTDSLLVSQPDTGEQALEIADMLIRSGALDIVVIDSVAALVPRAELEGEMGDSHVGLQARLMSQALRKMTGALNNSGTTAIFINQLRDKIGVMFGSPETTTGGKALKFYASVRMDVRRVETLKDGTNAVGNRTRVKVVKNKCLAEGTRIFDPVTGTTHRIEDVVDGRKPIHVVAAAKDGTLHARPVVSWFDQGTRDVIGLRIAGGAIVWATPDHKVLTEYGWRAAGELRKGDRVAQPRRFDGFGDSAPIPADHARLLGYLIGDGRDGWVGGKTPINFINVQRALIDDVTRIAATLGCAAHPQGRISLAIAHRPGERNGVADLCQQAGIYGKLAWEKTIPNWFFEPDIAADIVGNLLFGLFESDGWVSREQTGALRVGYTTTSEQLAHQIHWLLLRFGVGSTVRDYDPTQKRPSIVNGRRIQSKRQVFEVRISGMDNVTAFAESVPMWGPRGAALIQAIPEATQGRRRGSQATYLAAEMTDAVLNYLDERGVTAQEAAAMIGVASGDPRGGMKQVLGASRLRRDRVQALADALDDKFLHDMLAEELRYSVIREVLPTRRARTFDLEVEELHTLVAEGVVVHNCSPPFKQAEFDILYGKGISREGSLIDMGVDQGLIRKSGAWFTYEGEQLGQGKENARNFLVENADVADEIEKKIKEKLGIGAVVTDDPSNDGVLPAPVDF
Briefly: Fluorescence Cell-Free Homogeneous Dose Retest to Identify Inhibitors of RecA-Intein Splicing Activity. [Related pubchem assays (depositor defined):AID2097, AID2223, AID489010, AID492950]. It is filed as functional.

The target of test [6] is Cytochrome P450 2C9 (Homo sapiens, UniProt P11712).
Test [7] concerns the target Cytochrome P450 2C19 (Homo sapiens, UniProt P33261). Briefly: Cytochrome panel assay with activity outcomes. Panel member name: p450-cyp2c19 Compounds with AC50 equal or less than 10 uM are considered active. Format: functional. The settings on record: read-out: AC50.
In test [8] the target is Cytochrome P450 3A4 (Homo sapiens, UniProt P08684).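 Further: CYP3A4 tested as one member of a cytochrome P450 panel screen.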

The source made the active and inactive calls. Where only a bound is given, the exact number is not on record here.

Broadly, the IC50 is the concentration that gives 50% inhibition. As usually defined, the AC50 is the concentration at which the activity in the assay is half-maximal. The term EC50 denotes the midpoint of the concentration-response curve.

Chain of Cytochrome P450 3A4 (P08684 whole entry): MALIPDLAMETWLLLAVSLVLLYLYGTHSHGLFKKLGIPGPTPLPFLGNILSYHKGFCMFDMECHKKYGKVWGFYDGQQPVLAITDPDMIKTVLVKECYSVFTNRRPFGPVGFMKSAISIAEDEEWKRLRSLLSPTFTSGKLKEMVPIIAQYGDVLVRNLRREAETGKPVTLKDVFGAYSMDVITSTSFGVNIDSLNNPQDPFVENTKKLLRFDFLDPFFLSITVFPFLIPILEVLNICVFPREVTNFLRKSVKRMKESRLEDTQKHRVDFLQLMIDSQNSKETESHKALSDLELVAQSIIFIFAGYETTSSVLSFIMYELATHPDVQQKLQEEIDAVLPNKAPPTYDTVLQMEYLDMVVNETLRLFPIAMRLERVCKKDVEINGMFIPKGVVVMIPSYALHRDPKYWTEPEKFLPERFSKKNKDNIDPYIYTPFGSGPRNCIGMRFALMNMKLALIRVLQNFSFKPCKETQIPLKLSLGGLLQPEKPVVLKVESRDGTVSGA
Chain of Cytochrome P450 2D6 (P10635 whole entry): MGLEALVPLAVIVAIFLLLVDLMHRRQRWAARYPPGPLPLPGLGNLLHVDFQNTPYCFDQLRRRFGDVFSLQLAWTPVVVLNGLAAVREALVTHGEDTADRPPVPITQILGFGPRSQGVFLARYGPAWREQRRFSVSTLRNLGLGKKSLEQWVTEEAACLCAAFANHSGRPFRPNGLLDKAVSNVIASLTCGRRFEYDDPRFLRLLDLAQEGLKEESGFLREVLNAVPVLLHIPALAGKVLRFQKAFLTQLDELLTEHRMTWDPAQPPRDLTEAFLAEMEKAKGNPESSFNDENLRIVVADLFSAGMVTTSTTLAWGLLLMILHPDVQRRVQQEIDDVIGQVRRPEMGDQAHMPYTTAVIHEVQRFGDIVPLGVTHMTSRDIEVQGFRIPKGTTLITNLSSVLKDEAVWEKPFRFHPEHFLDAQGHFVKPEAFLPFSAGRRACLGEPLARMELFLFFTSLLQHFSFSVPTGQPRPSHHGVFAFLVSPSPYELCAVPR
Chain of Cytochrome P450 2C9 (P11712 whole entry): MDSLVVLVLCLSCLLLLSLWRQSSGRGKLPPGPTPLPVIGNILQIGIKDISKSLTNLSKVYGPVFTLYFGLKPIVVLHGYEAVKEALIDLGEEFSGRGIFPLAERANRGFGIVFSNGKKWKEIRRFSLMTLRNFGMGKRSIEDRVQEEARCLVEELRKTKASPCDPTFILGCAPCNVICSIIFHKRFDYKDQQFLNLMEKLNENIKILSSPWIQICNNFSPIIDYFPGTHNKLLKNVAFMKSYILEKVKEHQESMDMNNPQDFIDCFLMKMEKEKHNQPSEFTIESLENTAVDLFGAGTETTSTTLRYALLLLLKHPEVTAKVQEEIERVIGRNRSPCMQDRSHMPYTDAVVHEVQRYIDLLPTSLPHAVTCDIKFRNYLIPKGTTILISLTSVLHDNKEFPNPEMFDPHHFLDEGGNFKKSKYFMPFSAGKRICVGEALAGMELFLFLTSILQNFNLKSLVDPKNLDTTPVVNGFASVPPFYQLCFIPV
Chain of Cytochrome P450 2C19 (P33261 whole entry): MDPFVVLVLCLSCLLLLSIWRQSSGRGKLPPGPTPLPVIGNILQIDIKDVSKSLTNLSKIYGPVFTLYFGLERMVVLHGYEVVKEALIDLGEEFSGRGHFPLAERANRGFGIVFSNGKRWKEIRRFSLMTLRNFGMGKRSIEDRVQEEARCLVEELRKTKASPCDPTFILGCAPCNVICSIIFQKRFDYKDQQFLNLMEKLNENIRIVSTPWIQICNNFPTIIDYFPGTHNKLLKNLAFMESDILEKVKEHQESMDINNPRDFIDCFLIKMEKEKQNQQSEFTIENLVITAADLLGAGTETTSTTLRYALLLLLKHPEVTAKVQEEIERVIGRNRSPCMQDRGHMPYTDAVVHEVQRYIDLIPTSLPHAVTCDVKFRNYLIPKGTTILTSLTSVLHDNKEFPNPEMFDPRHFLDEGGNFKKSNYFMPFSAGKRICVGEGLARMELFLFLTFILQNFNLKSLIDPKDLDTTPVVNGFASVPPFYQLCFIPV

On to `COC(=O)c1ccc(N)c(NC=C2C(=O)CC(C)(C)CC2=O)c1`, for which, in test [1], the concentration for half-maximal inhibition (IC50) was 6.51 µM (active).
Same read-out and setting: as for `COc1ccc(NC(=O)N(C)C[C@H]2Oc3c(NC(=O)Nc4ccc(C(F)(F)F)cc4)cccc3C(=O)N([C@H](C)CO)C[C@@H]2C)cc1`, the figure is > 79 µM (inactive); as for `O=C(NCc1nnc(O)c2ccccc12)C1CC(=O)N(c2ccccc2)C1` (stereo unspecified), > 79 µM (inactive).
As for `Cc1ccccc1-c1nc(C[S+]([O-])CC(=O)N2CCC3(CC2)OCCO3)c(C)o1` (stereo unspecified), the AC50 in test [2] and in test [3] was 25.1 µM (inconclusive) throughout.
In the case of `Cc1noc(C)c1CSCC(=O)Oc1ccc(N(C)S(=O)(=O)c2ccccc2)cc1`, the AC50 in test [4] is 4.1 µM (active). Further, the 50% effective concentration (EC50) in test [5] is 22.3 µM (active).
Taken in the same sequence, the figures for `O=C(CSc1ncnc2c1nnn2Cc1ccc(F)cc1)NCC1CCCO1` (stereo unspecified) were 14.3 µM (active) and 10.2 µM (active).
Taken in the same sequence, the figures for `Cc1n[nH]c2c1C(c1cnn(C)c1)C(C#N)=C(N)O2` (stereo unspecified) were 14.2 µM (active) and 3.67 µM (active).
On to `CN(C)/C=N/c1ccc2nn(-c3ccccc3)nc2c1`, for which the concentration at half-maximal activity (AC50) in test [6] was 15.8 µM (inconclusive); in test [3], 25.1 µM (inconclusive).
As to `O=[N+]([O-])/C=C\c1cc2ccccc2[nH]1`, the AC50 in test [7] and in test [3] was 5.01 µM (inconclusive) in each case.
For `CCOc1ccc(-n2c(C)nc3cc(C(=O)NCc4ccco4)ccc32)cc1`, the results for the AC50 in test [2] and in test [3] were 25.1 µM (inconclusive) and 11.2 µM (inconclusive), respectively.
Regarding `Cc1ccc(NC(=O)CSc2ncnc3ccccc23)cc1S(=O)(=O)N1CCCCCC1`, in test [4], the AC50 was 20.1 µM (active). For the same molecule, the concentration giving a half-maximal response (EC50) in test [5] was 2.66 µM (active).
Regarding `O=C(Oc1ccc2c(-c3ccccc3)cc(=O)oc2c1)C1CCCCC1`, the IC50 in test [1] was 34.3 µM (inactive).
In the case of `Nc1nc(NCCc2ccc(O)cc2)nc2nc(-c3ccco3)nn12` [ZM-241385], the AC50 was 39.8 µM (inconclusive) in test [6], 31.6 µM (inconclusive) in test [2] and 10 µM (inconclusive) in test [3].
Take `CCCC(=O)Nc1nc2ccc(NC(=O)c3ccc(Br)o3)cc2s1`: the IC50 in test [1] is > 79 µM (inactive).
For `COc1ccccc1CNc1cc(-c2ccccc2C)ncn1`, the AC50 in test [8] is 31.6 µM (inconclusive); in test [3], 15.8 µM (inconclusive).
Turning to `CC1(C)CC2(C)OC(=N)C1(C#N)C2(C#N)C#N` (stereo unspecified), the concentration at half-maximal activity (AC50) in test [4] is 70.3 µM (active). For the same molecule, the EC50 in test [5] is 12.3 µM (active).
With `O=C(N/N=C\c1ccc(-c2ccccc2[N+](=O)[O-])o1)C1COc2ccccc2O1` (stereo unspecified), in test [4], the concentration at half-maximal activity (AC50) is 7.94 µM (active). Also, the concentration giving a half-maximal response (EC50) in test [5] was 12.4 µM (active).
As for `COc1cccc(Nc2c([N+](=O)[O-])cncc2[N+](=O)[O-])c1`, in test [4], the AC50 was 12.9 µM (active). Further, the concentration for a half-maximal effect (EC50) in test [5] is 8.86 µM (active).
Regarding `CCOC(=O)C1CCN(c2cc3c(cc2NC(=O)c2ccc(OC)c(OC)c2)n(C)c(=O)n3C)CC1`, in test [1], the IC50 was 26.8 µM (active).
On to `CCCn1c(SC(C(=O)Nc2cccc(OC)c2)c2ccccc2)nc2ccccc2c1=O` (stereo unspecified), for which, in test [1], the IC50 was > 79 µM (inactive).
The same measure, in the same setting: to `Cc1ccccc1C1c2[nH]c3ccccc3c2C[C@H]2C(=O)N(c3ccccc3C(=O)NCCCN3CCOCC3)C(=O)N12` (stereo partly specified) belongs 15.3 µM (active); to `COC(=O)C1=C(C)N(CCc2ccc(OC)cc2)C(=O)C1`, > 79 µM (inactive).
As for `Cn1cccc1C(=O)N1CCC2(CCCN(c3ccccn3)C2)CC1`, the half-maximal activity concentration (AC50) was 20 µM (inconclusive) in test [8], 25.1 µM (inconclusive) in test [6], 20 µM (inconclusive) in test [2] and 25.1 µM (inconclusive) in test [3].
As to `CN(C)c1ncc2nc(CCc3ccccc3)c(=O)n(Cc3ccc(F)cc3)c2n1`, the AC50 in test [8] was 3.98 µM (inconclusive); in test [3], 25.1 µM (inconclusive).
With `COc1cccc(N2CC(C(=O)Nc3nnc(SCC(=O)c4ccccc4)s3)CC2=O)c1` (stereo unspecified), in test [4], the AC50 was 181 µM (active). Also, in test [5], the EC50 was > 380 µM (inactive).
Taken in the same sequence, the figures for `CCS(=O)(=O)C1=NN2C(=N)/C(=C\c3ccc(OC(=O)c4ccco4)cc3)C(=O)N=C2S1` were > 380 µM (inactive) and 19.4 µM (active).
On to `CN(Cc1ccco1)c1ncncc1-c1ccoc1`, for which the AC50 was 3.16 µM (inconclusive) in test [8], 39.8 µM (inconclusive) in test [7] and 39.8 µM (inconclusive) in test [3].
Take `CCC1(C)Cc2c(sc3nc(NN)n(C)c(=O)c23)CO1` (stereo unspecified): the IC50 in test [1] was > 79 µM (inactive).
The same measure, in the same setting: to `O=C(COC(=O)Cc1nnc(O)c2ccccc12)Nc1ncc(Cl)cc1Cl` belongs 15.4 µM (active).
In the case of `COc1ccc(CCN(C)Cc2ccc(OCc3ccccc3)c(OC)c2)cc1OC`, the AC50 in test [6] is 15.8 µM (inconclusive); in test [2], 39.8 µM (inconclusive); in test [3], 14.1 µM (inconclusive).
As for `O=C(c1cc(C(F)(F)F)cc(C(F)(F)F)c1)N1CCC2(CC1)CN(c1ccccn1)C2`, the half-maximal activity concentration (AC50) in test [3] was 12.6 µM (inconclusive).
For `COc1ccc(CCC(C)Nc2cccc(F)c2)cc1` (stereo unspecified), the concentration at half-maximal activity (AC50) in test [3] was 10 µM (inconclusive).
